Laboratory results published in patent publication US7390873B2, “Antimicrobial cationic peptides” (University of British Columbia, priority 1995, dated 2008).
Where no end group is shown, it is not given here.

Assays:
human red blood cells = experiment: Lysis of red blood cells; format: cell-based
Description: Freshly collected human blood was mixed with heparin and centrifuged to remove the buffy coat. The resulting erythrocytes were washed three times in 0.85% saline and stored at 4° C. Serial dilutions of the peptides in saline were prepared in round bottomed microtitre plates using 100 μl volumes. Red blood cells were diluted with saline to 1/25 of the packed volume of cells and 50 μl of red blood cells were added to each well. Plates were incubated while rocking at 37° C., and the concentration of peptide required for red blood cell lysis of more than 80% of cells (i.e., visible lysis) was determined at 4 and 24 hours (Table 7).

[1] = Mortality after injection of peptide in mice; format: in vivo; conditions: 200 μg peptide IP
Description: The ability of indolicidin and variants to protect against LPS-induced endotoxemia was assessed in vivo. Mice (8-10 weeks old) were injected intraperitoneally (IP) with 20 mg D-galactosamine (Dgal) to sensitive them to LPS according to the model of Galanos (Galanos, C., M. A., Freudenberg and W. Reutter, 1979, Galactosamine sensitization to the lethal effects of endotoxin. Proc. Natl. Acad. Sci. USA 76:5939), followed by 200 μg peptide in 100 μl. Immediately afterwards LPS (10 μg) in 100 μl was injected. The mice were observed 24 hours after injections and survivors noted. […] When Dgal and LPS were also injected, that 200 μg of indolicidin reduced mortality reduced at 24 hours from 100% in controls to 60%.

[2] = test system: Staphylococcus epidermidis C621; format: cell-based; conditions: C621, 24 h
Description: (§1) Any of the art-known methods for measuring antimicrobial activity of peptides can be used in characterizing the peptides of the invention. In these examples, conventional methods were used to determine the minimal inhibitory concentration (MIC) of a peptide in a liquid medium (Amsterdam. Antibiotics in Laboratory Medicine, Williams and Wilkins, Baltimore (1991) 72-78). Briefly, overnight cultures of the test organisms (described below) were diluted to produce an inoculum containing approximately 10^4 to 10^5 organisms. The inoculum size was confirmed by counting the number of organisms on plates that were inoculated at the same time as the liquid cultures.
(§2) The concentration of peptide was measured by assaying for free amino groups using a dinitrophenylation assay, with polymyxin B serving as a standard. Doubling dilutions of peptide were performed (32 μg/ml-0.25 μg/ml) in 100 μl volumes in a 96-well mictrotiter plate, and all wells were subsequently inoculated with the diluted culture of the test organism. After 24 hours of incubation at 37° C., the assay was read. The MIC value is the concentration of peptide at which the growth of the test organism was reduced by 50%. The number of cells in the culture inoculum was calculated from the plate count after incubating the plate for 24 hours at 37° C. The medium used for cell culture and dilution in this assay was Luria broth (LB). Each peptide was tested three times against each organism, and the MIC values presented below are the mean values of the three experiments.

[3] = test system: Pseudomonas aeruginosa K799; format: cell-based; conditions: K799, 24 h
Description: as §1, §2

E. coli UB1005 = format: cell-based; conditions: UB1005, 24 h
Description: as §1, §2

[4] = test system: Staphylococcus aureus RN4220; format: cell-based; conditions: RN4220, 24 h
Description: as §1, §2

Candida albicans C627 = format: cell-based; conditions: C627, 24 h

ILKKWPWWPWRRK [CP-11]
Lowest concentration causing lysis, 4 hours (human red blood cells): >128 µg/mL | Lowest concentration causing lysis, 24 hours (human red blood cells): >128 µg/mL | Mortality after injection of peptide [1]: did not cause mortality | Toxicity to T-lymphocytes compared with indolicidin (T-lymphocytes): less toxic than indolicidin | MIC S. epidermidis [2]: 2 µg/mL | MIC P. aeruginosa [3]: 16 µg/mL | MIC E. coli (E. coli UB1005): 4 µg/mL | MIC S. aureus [4]: 16 µg/mL | MIC C. albicans (Candida albicans C627): 8 µg/mL
